{"source": "patent US7981875B2", "about": "“2″ oxo-voruscharin and derivatives thereof” (priority 2002, dated 2011)", "key": {"[1]": {"system": "HCT-15 human cancer cells", "assay": "Cell cycle kinetics by flow cytometry (propidium iodide)", "type": "cell-based", "set-up": "key to Effect on cell cycle kinetics, G0/G1 / Effect on cell cycle kinetics, S / Effect on cell cycle kinetics, G2/M: n.s. means no significant; ** means highly significant; *** very highly significant", "experimental": "(§1) Cell lines were seeded in flasks (25 cm^2 area) containing 7 ml of culture medium. After 48 hours incubation at 37° C. the cell culture medium was replaced by a fresh medium in which the substance to be tested had been dissolved at the different concentrations required. Uscharin and 2″ oxo-voruscharin were tested at concentrations, which kill 50% and 30% of the cell population, represented by the IC50 and IC30 values, respectively. After 24 or 72 hours of treatment the cells were harvested in suspension, washed in Phosphate Buffer Saline (PBS) at 4° C. and permeabilized with 70% ethanol (at 4° C.) overnight at −20° C. The cells were then washed with PBS and incubated with propidium iodide solution (80 μg/ml) for 30 minutes at 37° C. and afterward at 4° C. overnight. Ribonuclease A (3% V/V) was added to the PI solution to break doubled-stranded RNA. The portrait of the cell cycle was established for each sample. Software incorporated into the flow cytometer was used to define precisely the percentage of cells in the different cell cycle phases. Each cell cycle phase was reported in terms of peak surface and calculated as a percentage. The surface of the entire cell cycle was 100%. Each experiment was carried out 3 times. The mean percentage of each different phase and the standard error of the related mean were calculated. Each cell cycle phase of a given condition was compared with the same cell cycle phase of control. The non-treated cells constituted control.\n(§2) Uscharin and 2″ oxo-voruscharin are highly toxic to human tumor cell lines. The concentrations used in the flow cytometry experiments were chosen in accordance with the MTT results (example 2). Three human cancer cell lines, Hs683, J82, and HCT-15 were tested and doses that killed 30 and 50 percent of the cells were applied to investigate whether uscharin and 2″ oxo-voruscharin promoted an accumulation in one of the cell cycle phases when the cell cultures were treated for 24 or 72 hours with increasing concentrations of the compounds. The IC50 and IC30 values for uscharin and 2″ oxo-voruscharin corresponding to the three tested cell lines are represented in Table E."}, "[2]": {"system": "J82 human cancer cells", "assay": "Cell cycle kinetics by flow cytometry (propidium iodide)", "type": "cell-based", "set-up": "key to Effect on cell cycle kinetics, G0/G1 / Effect on cell cycle kinetics, S / Effect on cell cycle kinetics, G2/M: n.s. means no significant; ** means highly significant; *** very highly significant", "experimental": "as §1, §2"}, "[3]": {"system": "Hs683 human cancer cells", "assay": "Cell cycle kinetics by flow cytometry (propidium iodide)", "type": "cell-based", "set-up": "key to Effect on cell cycle kinetics, G0/G1 / Effect on cell cycle kinetics, S / Effect on cell cycle kinetics, G2/M: n.s. means no significant; ** means highly significant; *** very highly significant", "experimental": "as §1, §2"}, "[4]": {"system": "A549 (lung cancer)", "assay": "Orthotopic lung cancer model", "type": "in vivo, mice", "conditions": "for T/C index: A549 orthotopic, three times a week", "experimental": "(§3) Three types of results were obtained with in vivo anti-tumor pharmacology: 1) the cumulative toxicity of chemotherapeutic administrations through recording the weights of the tumor-bearing mice during treatment, 2) the actual anti-tumor effect exerted at tumor growth level. If the tumor models are grafted subcutaneously (s.c.), tumor size is measured three times a week by means of a caliper and expressed as an area (mm^2) by multiplying together the two largest perpendicular diameters, and 3) the gain in survival for the animals treated, which is evaluated by means of the T/C index. This index is the ratio between the median survival time of the group of treated animals (T) and that of the control group. The drug is considered to be active if the T/C value is above 130% (P<0.05), and toxic for a value lower than 70%.\nThe antitumoral activity of compound B was evaluated in different xenografted models: sub-cutanous model: MCF-7-TD5 (breast cancer) and C32 (melanoma cancer) and orthotopic model: A549 (lung cancer).\nLung cancer is the leading cause of cancer deaths worldwide. Most patients die of progressive metastatic disease despite aggressive local and systemic therapies. The pathogenesis of lung cancer remains highly elusive due to its aggressive biologic nature and considerable heterogeneity, as compared to other cancers. Orthotopic lung cancer models are described in the literature using endobronchial, intrathoracic or intravenous injection of tumor cell suspensions and by surgical implantation of fresh tumor tissue. The tumor cells are directly injected into the lung of nude mice. The advantages of orthotopic models include improved tumor take and enhanced invasive and metastatic properties.\nCompound B was assayed at DMT/2 (40 mg/kg), DMT/4 (20 mg/kg) and DMT/8 (10 mg/kg) three times a week. […] These values are statistically significant.\nFIG. 21 represents the death rate of nine mice in each of the control and test groups during the experiment. Kaplan-Meier statistical analysis was used. The statistics value underlines the general fit of the test control in comparison with the general fit of the control group. […] The level significance was p<0.05."}, "[5]": {"system": "PC-3 orthotopic xenograft", "assay": "Orthotopic refractory prostate cancer model", "type": "in vivo, nude mice", "conditions": "from 7th day post-graft", "experimental": "as §3\n(§4) In addition to the xenografted models of Example 6, the antitumoral activity of compound B was evaluated in orthotopic xenografted models PC3 (Prostate) and Capan2 (Pancreas).\nCompound B was evaluated in vivo on highly invasive orthotopic PC-3 refractory prostate cancer model by measurement of T/C index, as described in Example 6 of the specification."}, "[6]": {"system": "Capan-2 orthotopic xenograft", "assay": "Orthotopic pancreatic cancer model", "type": "in vivo, nude mice", "experimental": "as §3, §4\nCompound B was further evaluated on in vivo orthotopic Capan-2 pancreatic cancer model by measurement of T/C index, as described in Example 6 of the specification."}}}
{"molecule": "CC1CC2(NC(=O)CS2)C2(O)OC3CC4(C=O)C(CCC5C4CCC4(C)C(C6=CC(=O)OC6)CCC54O)CC3OC2O1", "note": "(stereo not drawn) [2″oxo-voruscharin, 2″ oxo-voruscharin]", "values": [{"measurement": "Effect on cell cycle kinetics, G0/G1", "setting": "[1]; HCT-15, 24 h", "result": "n.s."}, {"measurement": "Effect on cell cycle kinetics, G2/M", "setting": "[1]; HCT-15, 24 h", "result": "n.s."}, {"measurement": "Effect on cell cycle kinetics, S", "setting": "[1]; HCT-15, 24 h", "result": "n.s."}, {"measurement": "Effect on cell cycle kinetics, G0/G1", "setting": "[1]; HCT-15, 72 h", "result": "n.s."}, {"measurement": "Effect on cell cycle kinetics, G2/M", "setting": "[1]; HCT-15, 72 h", "result": "n.s."}, {"measurement": "Effect on cell cycle kinetics, S", "setting": "[1]; HCT-15, 72 h", "result": "***"}, {"measurement": "cell cycle, S-phase", "setting": "[1]; HCT-15, 72 hours, highest concentration tested (4.3×10^−8 M uscharin, 1.2×10^−8 M 2″oxo-voruscharin)", "result": "accumulation in S-phase"}, {"measurement": "Effect on cell cycle kinetics, G0/G1", "setting": "[2]; J82, 24 h", "result": "n.s."}, {"measurement": "Effect on cell cycle kinetics, G2/M", "setting": "[2]; J82, 24 h", "result": "n.s."}, {"measurement": "Effect on cell cycle kinetics, S", "setting": "[2]; J82, 24 h", "result": "n.s."}, {"measurement": "Effect on cell cycle kinetics, G0/G1", "setting": "[2]; J82, 72 h", "result": "n.s."}, {"measurement": "Effect on cell cycle kinetics, G2/M", "setting": "[2]; J82, 72 h", "result": "n.s."}, {"measurement": "Effect on cell cycle kinetics, S", "setting": "[2]; J82, 72 h", "result": "**"}, {"measurement": "cell cycle, S-population", "setting": "[2]; J82, only after 72 hours of treatment at both concentrations tested", "result": "increase of S-population"}, {"measurement": "cell cycle, G2/M phase", "setting": "[3]; Hs683, 8.3×10^−9 M after 24 hours and both concentrations for 72 hours, significant", "result": "accumulation in G2/M phase"}, {"measurement": "Effect on cell cycle kinetics, G0/G1", "setting": "[3]; Hs683, 24 h", "result": "n.s."}, {"measurement": "Effect on cell cycle kinetics, G2/M", "setting": "[3]; Hs683, 24 h", "result": "***"}, {"measurement": "Effect on cell cycle kinetics, S", "setting": "[3]; Hs683, 24 h", "result": "n.s."}, {"measurement": "Effect on cell cycle kinetics, G0/G1", "setting": "[3]; Hs683, 72 h", "result": "n.s."}, {"measurement": "Effect on cell cycle kinetics, G2/M", "setting": "[3]; Hs683, 72 h", "result": "**"}, {"measurement": "Effect on cell cycle kinetics, S", "setting": "[3]; Hs683, 72 h", "result": "n.s."}]}
{"molecule": "CC1CC2(NC(=O)CS2)C2(O)OC3CC4(CO)C(CCC5C4CCC4(C)C(C6=CC(=O)OC6)CCC54O)CC3OC2O1", "note": "(stereo not drawn) [Compound B]", "values": [{"measurement": "T/C index", "setting": "[4]; 3×40 mg/kg", "result": 124, "unit": "%"}, {"measurement": "T/C index", "setting": "[4]; 7×20 mg/kg", "result": 152, "unit": "%"}, {"measurement": "T/C index", "setting": "[4]; 10×10 mg/kg", "result": 186, "unit": "%"}, {"measurement": "weight of A549-tumor bearing mice (toxic side effects)", "setting": "[4]; constant administrations, 40, 20 and 10 mg/kg", "result": "did not lose any significant weight"}, {"measurement": "weight of A549-tumor bearing mice", "setting": "[4]; first week of administration at 40 mg/kg", "result": "significant loss of weight"}, {"measurement": "T/C value", "setting": "[5]; i.p. DMT/4 (20 mg/kg), 5ix6w", "result": 177, "unit": "%"}, {"measurement": "T/C value", "setting": "[5]; per os DMT/2 (40 mg/kg), 5dx6w", "result": 132, "unit": "%"}, {"measurement": "T/C value", "setting": "[6]; i.p. DMT/4 (20 mg/kg), 3ix5w, from 21st day post-graft", "result": 129, "unit": "%"}, {"measurement": "T/C value", "setting": "[6]; i.p. DMT/8 (10 mg/kb), 5ix8w, from 14th day post-graft", "result": 127, "unit": "%"}]}
